Measured values taken from patent US8492368B2 (priority 2011, dated 2013).

Legend:
rats suffering from TBI = conditions: 16 mg/kg, 72 hours post-injury, moderate to severe brain injury, FIG. 1, p<0.05; cited from earlier work
traumatic brain injury = conditions: cited from earlier work; for factors of cell death, brain swelling and inflammation: TBI
P-glycoprotein (PGP) = experiment: P-glycoprotein protein abundance in penumbral region of injured brain, FIG. 6; assay type: in vivo, rodents; conditions: 72 hours post-injury, vs vehicle and sham, p<0.05, FIG. 6
[1] = test system: rats that have suffered a concussion (mTBI); experiment: Morris Water Maze latency to platform in mTBI (concussion) model, FIG. 8; assay type: in vivo; conditions: vs vehicle-injured rats, p<0.05
severe TBI patients = conditions: six months; cited from earlier work
[2] = test system: male reproductive function; conditions: males; cited from earlier work
glutathione reductase = conditions: 72 hours post-injury, compared to all other groups, FIG. 2, p<0.01; cited from earlier work
[3] = molecular target: T1, progesterone receptor (PR) (Homo sapiens, UniProt P06401); conditions: cited from earlier work
T1 sequence (P06401 1-933): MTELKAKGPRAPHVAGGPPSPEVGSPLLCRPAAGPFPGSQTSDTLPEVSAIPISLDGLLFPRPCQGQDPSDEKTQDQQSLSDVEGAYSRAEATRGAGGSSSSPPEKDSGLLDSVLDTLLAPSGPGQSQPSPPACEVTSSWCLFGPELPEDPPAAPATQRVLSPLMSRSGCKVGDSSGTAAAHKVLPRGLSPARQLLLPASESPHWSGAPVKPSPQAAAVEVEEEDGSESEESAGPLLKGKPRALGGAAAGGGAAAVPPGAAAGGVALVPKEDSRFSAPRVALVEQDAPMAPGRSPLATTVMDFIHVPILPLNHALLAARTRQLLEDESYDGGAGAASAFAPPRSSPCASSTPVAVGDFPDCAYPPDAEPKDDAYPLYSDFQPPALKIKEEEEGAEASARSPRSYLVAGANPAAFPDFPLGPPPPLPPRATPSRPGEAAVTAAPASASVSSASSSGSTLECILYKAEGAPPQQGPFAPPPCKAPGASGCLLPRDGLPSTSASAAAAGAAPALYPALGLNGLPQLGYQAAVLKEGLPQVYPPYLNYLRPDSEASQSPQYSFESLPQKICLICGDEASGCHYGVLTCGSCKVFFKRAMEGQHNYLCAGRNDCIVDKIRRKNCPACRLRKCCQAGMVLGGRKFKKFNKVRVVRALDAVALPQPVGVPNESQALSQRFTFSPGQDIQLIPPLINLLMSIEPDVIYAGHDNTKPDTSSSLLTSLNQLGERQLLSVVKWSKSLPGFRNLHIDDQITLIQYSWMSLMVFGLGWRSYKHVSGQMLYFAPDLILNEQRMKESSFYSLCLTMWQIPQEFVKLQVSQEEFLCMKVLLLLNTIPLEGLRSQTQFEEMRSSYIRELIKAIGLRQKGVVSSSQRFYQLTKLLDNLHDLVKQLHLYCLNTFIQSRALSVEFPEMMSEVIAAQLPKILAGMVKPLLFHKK

CC(=O)[C@H]1CC[C@H]2[C@@H]3CC[C@H]4C[C@H](O)CC[C@]4(C)[C@H]3CC[C@]12C [ALLO, allopregnanolone]
brain water content (measure of edema) (rats suffering from TBI): normalizes brain water content
factors of cell death (caspase-3) and gliosis (GFAP) (traumatic brain injury; following injury): decreased

CC(=O)[C@H]1CC[C@H]2[C@@H]3CCC4=CC(=O)CC[C@]4(C)[C@H]3CC[C@]12C [Prog, progesterone]
protein abundance of P-glycoprotein (PGP) (P-glycoprotein (PGP)): increase
latency to platform, post-acute administration ([1]; 15 minutes post mTBI (1 hour post)): decreases latency to platform
latency to platform, prophylactic administration ([1]; 15 minutes prior to mTBI (1 hour prior)): decreases latency to platform
brain water content (measure of edema) (rats suffering from TBI): normalizes brain water content
neurological outcomes long-term (severe TBI patients): better neurological outcomes
conversion of testosterone to dihydrotestosterone [2]: inhibits
size of reproductive organs [2]: reduces
spermatogenesis [2]: suppresses
factors of cell death, brain swelling and inflammation (traumatic brain injury): equivalently reduce
edema (traumatic brain injury; both rodent sexes following injury): effectively attenuates
genes promoting the inflammatory cascade: Bcl-2, IL-1β and Cxcl-10 (traumatic brain injury; following TBI, previous study): down-regulated
factors of cell death (caspase-3) and gliosis (GFAP) (traumatic brain injury; following injury): decreased
inflammatory factors (TNF-α and IL-1β) (traumatic brain injury; following injury): inhibiting
Neurological Severity Score (motor and cognitive functioning) (traumatic brain injury; rats following injury): significant improvements

CC(=O)[C@@H]1CC[C@@H]2[C@H]3CCC4=CC(=O)CC[C@@]4(C)[C@@H]3CC[C@]21C [ent-Prog, ent-progesterone]
protein abundance of P-glycoprotein (PGP) (P-glycoprotein (PGP)): increase
brain water content (measure of edema) (rats suffering from TBI): normalizes brain water content
anti-oxidant activity of glutathione reductase (glutathione reductase): significantly increases
activation of PR-mediated transcription [3]: does not activate
factors of cell death, brain swelling and inflammation (traumatic brain injury): equivalently reduce
